Assay [1] relates to FXN mRNA. Kind of assay: Screen of library of eighty epigenetic inhibitors in GM03816 FRDA diseased fibroblasts, FXN mRNA fold change. Format: cell-based, human. The settings on record: for fold induction at 1 µM / fold induction at 5 µM: Homo sapiens, Fibroblast, 72 h; for fold induction at 1 µM: read-out: 3816 1 uM (FXN mRNA fold change); for fold induction at 5 µM: read-out: 3816 5 uM (FXN mRNA fold change). Here is the method: FXN RNA levels are indicated on the y-axis and the inhibitors used at both 1 μM and 5 μM are shown on the x-axis.
A screen of a library of eighty epigenetic inhibitors (Cayman Chemical) was performed in GM03816 FRDA fibroblasts to identify epigenetic regulators that upregulate FXN expression.

In assay [2] the test system is FXN mRNA. Kind of assay: Screen of epigenetic inhibitors in GM0321 normal fibroblasts, FXN RNA levels. Format: cell-based, human. The following applies: for fold induction at 1 µM / fold induction at 5 µM: Homo sapiens, Fibroblast, 72 h; for fold induction at 1 µM: read-out: FXN mRNA fold change, 321B 1 uM; for fold induction at 5 µM: read-out: FXN mRNA fold change, 321B 5 uM.

Setting [3] is: GM03816 FRDA diseased fibroblasts, 1 uM inhibitor, 3 days of treatment.
Where [4] appears, read: GM03816 FRDA diseased fibroblasts, 5 uM inhibitor, 3 days of treatment.
[5] abbreviates: GM0321 normal fibroblasts, 1 uM inhibitor, 3 days of treatment.
Where [6] appears, read: GM0321 normal fibroblasts, 5 uM inhibitor, 3 days of treatment.

Results on 31 compounds are retold here after US20160201063A1, “EPIGENETIC REGULATORS OF FRATAXIN” (RANA THERAPEUTICS, INC., priority 2013, published 2016).

Regarding `O=C(CCCCCCC(=O)Nc1ccc(I)cc1)NO` [Oligo 4-iodo-SAHA], in assay [1] (setting [3]), the “3816 1 uM (FXN mRNA fold change)” value is reported as 0.6878. Besides, the “3816 5 uM (FXN mRNA fold change)” value in assay [1] (setting [4]) turned out to be 0.1302. In assay [2] (setting [5]), the “FXN mRNA fold change, 321B 1 uM” value is recorded as 0.668. Moreover, the “FXN mRNA fold change, 321B 5 uM” value in assay [2] (setting [6]) came to 0.5901.
On the same counts, the results for `O=C(O)c1ccc(O)c2ncccc12` [IOX1] are 1.272, 0.8722, 0.9479 and 0.7185.
For `O=c1oc2c(O)c(O)cc3c(=O)oc4c(O)c(O)cc1c4c23` [Ellagic Acid], the fold induction at 1 µM in assay [1] (setting [3]) is 0.788; in assay [2] (setting [5]) it was 0.675. Besides, the fold induction at 5 µM worked out at 0.189 in assay [1] (setting [4]) and 0.248 in assay [2] (setting [6]).
For the compound `CNCc1ccc(-c2[nH]c3cc(F)cc4c3c2CCNC4=O)cc1` [AG-014699], the fold induction at 1 µM in assay [1] (setting [3]) stood at 1.06; in assay [2] (setting [5]), 0.895. In addition, the fold induction at 5 µM was 0.892 in assay [1] (setting [4]) and 1 in assay [2] (setting [6]).
Turning to (−)-Neplanocin A, the “3816 1 uM (FXN mRNA fold change)” value in assay [1] (setting [3]) came out at 1.067. For the same compound, the “3816 5 uM (FXN mRNA fold change)” value in assay [1] (setting [4]) was determined as 0.943. The “FXN mRNA fold change, 321B 1 uM” value in assay [2] (setting [5]) is listed as 0.8734. Besides, in assay [2] (setting [6]), the “FXN mRNA fold change, 321B 5 uM” value is given as 1.105.
The corresponding values for `CN1CCc2c(c3ccccc3n2Cc2ccc(C(=O)NO)cc2)C1` [Tubastatin A] are 0.9276, 0.9192, 0.8993 and 1.038.
On the same counts, the results for `N#C/C(=C\c1ccc(-c2cc(Cl)ccc2Cl)o1)C(=O)Nc1cccc2ncccc12` [AGK2] are 1.206, 1.101, 1.115 and 1.053.
As for UNC0321 (trifluoroacetate salt), the “3816 1 uM (FXN mRNA fold change)” value in assay [1] (setting [3]) came out at 0.9323. The “3816 5 uM (FXN mRNA fold change)” value in assay [1] (setting [4]) is 0.8929. Also, the “FXN mRNA fold change, 321B 1 uM” value in assay [2] (setting [5]) amounted to 0.7517. The “FXN mRNA fold change, 321B 5 uM” value in assay [2] (setting [6]) turned out to be 0.605.
On the same counts, the results for “(3S,3′S,5aR,5aR,10bR,10′bR,11aS,11′aS)- 2,2′,3,3′,5a,5′a,6,6′-octahydro- 3,3′-bis(hydroxymethyl)-2,2′- dimethyl-[10b,10′b(11H,11′H)- bi3,11a-epidithio-11aH- pyrazino[1′,2′:1,5]pyrrolo[2,3- b]indole]-1,1′4,4′-tetrone [Chaetocin, reference compound]” are 0.9302, 0.7778, 0.9084 and 0.9952.
Take `O=C(NCc1ccccc1)c1c(/N=C/c2c(O)ccc3ccccc23)sc2c1CCCC2` [JGB1741]: the “3816 1 uM (FXN mRNA fold change)” value in assay [1] (setting [3]) amounted to 1.006. Further, the “3816 5 uM (FXN mRNA fold change)” value in assay [1] (setting [4]) came to 1.17. Further, in assay [2] (setting [5]), the “FXN mRNA fold change, 321B 1 uM” value came out at 0.9963. In addition, in assay [2] (setting [6]), the “FXN mRNA fold change, 321B 5 uM” value is 0.7224.
On to `CC(NC(=O)c1ccccc1/N=C/c1c(O)ccc2ccccc12)c1ccccc1` (centres unmarked) [Sirtinol], for which the fold induction at 1 µM in assay [1] (setting [3]) stood at 1.06; in assay [2] (setting [5]), 0.81. Also, the fold induction at 5 µM worked out at 0.92 in assay [1] (setting [4]) and 1.02 in assay [2] (setting [6]).
For `N=C1NC(=O)/C(=C/c2ccc(O)cc2)S1` [Mirin], the fold induction at 1 µM in assay [1] was 1.06; in assay [2] it was 1.08. The figures for the fold induction at 5 µM in assay [1] and in assay [2] were 0.679 and 1.31, respectively.
As to `Nc1ccccc1NC(=O)CCCCCCC(=O)Nc1ccccc1` [CAY10433], the “3816 1 uM (FXN mRNA fold change)” value in assay [1] (setting [3]) is on record as 0.8309. Also, in assay [1] (setting [4]), the “3816 5 uM (FXN mRNA fold change)” value is 0.8827. The “FXN mRNA fold change, 321B 1 uM” value in assay [2] (setting [5]) came to 1.03. For the same compound, the “FXN mRNA fold change, 321B 5 uM” value in assay [2] (setting [6]) was determined as 0.7782.
The corresponding values for Anacardic Acid are 1.162, 1.01, 1.169 and 0.8356.
On the same counts, the results for Oxamflatin are 0.3506, 0.108, 0.5612 and 0.2391.
The corresponding values for `NC(=O)[C@H](CCCN=C(N)CF)NC(=O)c1ccccc1` [F-Amidine] are 0.7818, 0.6484, 0.9152 and 0.9697.
Turning to `COCCCn1c(N)c(C(=O)NC2CCCC2)c2nc3ccccc3nc21` [CAY10591], the “3816 1 uM (FXN mRNA fold change)” value in assay [1] (setting [3]) is reported as 1.311. Besides, the “3816 5 uM (FXN mRNA fold change)” value in assay [1] (setting [4]) is on record as 1.377. In assay [2] (setting [5]), the “FXN mRNA fold change, 321B 1 uM” value is recorded as 0.9828. In addition, in assay [2] (setting [6]), the “FXN mRNA fold change, 321B 5 uM” value worked out at 1.437.
The corresponding values for `Nc1nccc2c1ncn2C1C=C(CO)C(O)C1O` (centres unmarked) [3-Deazaneplanocin A] are 0.1514, 0.2102, 0.2641 and 0.1265.
With `O=C(CCCCCCC(=O)Nc1ccccc1)NO` [SAHA], in assay [1] (setting [3]), the “3816 1 uM (FXN mRNA fold change)” value is 0.4857. In addition, the “3816 5 uM (FXN mRNA fold change)” value in assay [1] (setting [4]) is listed as 0.0916. Further, the “FXN mRNA fold change, 321B 1 uM” value in assay [2] (setting [5]) amounted to 0.4256. Further, in assay [2] (setting [6]), the “FXN mRNA fold change, 321B 5 uM” value is 0.1923.
On the same counts, the results for `CCOC(=O)CCNc1cc(N2CCc3ccccc3CC2)nc(-c2cccnc2)n1.Cl` [GSK-J5 (hydrochloride)] are 1.183, 0.9451, 0.8597 and 0.9741.
For `COc1cc2c(NC3CCN(C(C)C)CC3)nc(C3CCCCC3)nc2cc1OCCCN1CCCC1` [UNC0638, 2-Cyclohexyl-6-methoxy-N-[1-(1-methylethyl)-4-piperidinyl]-7-[3-(1-pyrrolidinyl)propoxy]-4-quinazolinamine, reference compound], the figures for the fold induction at 1 µM in assay [1] (setting [3]) and in assay [2] (setting [5]) were 1.27 and 1.09, respectively. Also, the fold induction at 5 µM was 1.17 in assay [1] (setting [4]) and 1.02 in assay [2] (setting [6]).
Turning to `CCCCCOc1ccc(/C=C\c2cccc(O)c2C(=O)O)cc1` [CAY10669], the “3816 1 uM (FXN mRNA fold change)” value in assay [1] (setting [3]) was determined as 0.8709. In addition, the “3816 5 uM (FXN mRNA fold change)” value in assay [1] (setting [4]) is listed as 1.074. For the same compound, the “FXN mRNA fold change, 321B 1 uM” value in assay [2] (setting [5]) was 0.7796. Also, the “FXN mRNA fold change, 321B 5 uM” value in assay [2] (setting [6]) is reported as 0.3094.
Consider `CCC(=O)CCCCC[C@@H]1NC(=O)[C@H]2CCCCN2C(=O)[C@H]([C@@H](C)CC)NC(=O)[C@H](Cc2cn(OC)c3ccccc23)NC1=O` [Apicidin], for which the results for the fold induction at 1 µM in assay [1] and in assay [2] were 0.0791 and 0.119, respectively. In addition, the fold induction at 5 µM in assay [1] worked out at 0.435; in assay [2], 0.397.
`O=C(O)c1ccnc(C(=O)O)c1` [2,4-Pyridinedicarboxylic Acid]: the figures for the fold induction at 1 µM in assay [1] (setting [3]) and in assay [2] (setting [5]) were 0.885 and 0.458, respectively. For the same compound, the fold induction at 5 µM in assay [1] (setting [4]) came to 0.888; in assay [2] (setting [6]), 0.645.
For the compound `O=C(CCCCCCC(=O)NO)NO` [Suberohydroxamic Acid], the fold induction at 1 µM in assay [1] (setting [3]) turned out to be 1.18; in assay [2] (setting [5]), 0.959. Besides, the fold induction at 5 µM came to 0.982 in assay [1] (setting [4]) and 1.02 in assay [2] (setting [6]).
As to `COc1ccc(Cn2ccc3ccc(C(=O)NO)cc32)cc1` [PCI 34051], the “3816 1 uM (FXN mRNA fold change)” value in assay [1] (setting [3]) is 1.084. Moreover, in assay [1] (setting [4]), the “3816 5 uM (FXN mRNA fold change)” value came to 1.209. In assay [2] (setting [5]), the “FXN mRNA fold change, 321B 1 uM” value amounted to 0.9743. Further, in assay [2] (setting [6]), the “FXN mRNA fold change, 321B 5 uM” value was determined as 1.306.
As for `Nc1cc(F)ccc1NC(=O)c1ccc(CNC(=O)/C=C/c2cccnc2)cc1` [Chidamide], the fold induction at 1 µM in assay [1] (setting [3]) was determined as 0.924; in assay [2] (setting [5]), 0.835. The fold induction at 5 µM in assay [1] (setting [4]) was determined as 0.968; in assay [2] (setting [6]), 0.799.
On to `O=C(O)CNC(=O)C(=O)O` [N-Oxalylglycine], for which, in assay [1] (setting [3]), the fold induction at 1 µM turned out to be 0.708. Further, the values for the fold induction at 5 µM in assay [1] (setting [4]) and in assay [2] (setting [6]) were 1.03 and 0.68, respectively.
As for `COc1ccccc1S(=O)(=O)Nc1ccc2c(c1)CN(C)C(=O)N2` [PFI-1], the “3816 1 uM (FXN mRNA fold change)” value in assay [1] (setting [3]) is 0.9175. The “3816 5 uM (FXN mRNA fold change)” value in assay [1] (setting [4]) was 0.923. Further, in assay [2] (setting [5]), the “FXN mRNA fold change, 321B 1 uM” value was found to be 0.9577. The “FXN mRNA fold change, 321B 5 uM” value in assay [2] (setting [6]) worked out at 0.9071.
Take `NC(=O)c1cccnc1` [Nicotinamide]: the results for the fold induction at 1 µM in assay [1] (setting [3]) and in assay [2] (setting [5]) were 0.852 and 0.687, respectively. Moreover, the fold induction at 5 µM in assay [1] (setting [4]) worked out at 0.775; in assay [2] (setting [6]), 0.702.
As to `CC(C)(C)OC(=O)Nc1ccc(-c2cc(C(=O)NCCCCCCC(=O)NO)no2)cc1` [CAY10603], in assay [1] (setting [3]), the “3816 1 uM (FXN mRNA fold change)” value came to 0.5205. Also, the “3816 5 uM (FXN mRNA fold change)” value in assay [1] (setting [4]) was found to be 0.07004. For the same compound, in assay [2] (setting [5]), the “FXN mRNA fold change, 321B 1 uM” value was determined as 0.3592.
